Strand notation (5' to 3'): a small letter for the sugar, then the base; units joined by * are phosphorothioate-linked, units joined directly phosphodiester-linked; [ ] holds rarer units or linkages, { } end groups; capitals alone tell only the bases. e = 2'-O-(2-methoxyethyl) (MOE); k = constrained ethyl (cEt); [5mC] = 5-methylcytosine; d = 2'-deoxy (DNA); m = 2'-O-methyl
Test system: Yap1 mRNA
Test: Antisense inhibition of human Yap1 in SNU-449 cells by modified oligonucleotides, single dose (Example 5, RTS36584)
Format: cell-based
In short: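 Free uptake, 2,000 nM, ~48 h, SNU-449 at 10,000 cells/well. Read-out: qRT-PCR (RTS36584), RIBOGREEN-normalised, expressed as % UTC. Asterisk = oligo hits amplicon region.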

[1] = Table 46, Yap1 mRNA as percent of untreated control, SNU-449 cells, single dose
[2] = Table 39, SNU-449 cells, 10,000 cells per well, free uptake, 2,000 nM oligonucleotide, approx. 48 hours, RTS36584, normalized to RIBOGREEN, Yap1 mRNA relative to untreated control
[3] = Table 45, Yap1 mRNA as percent of untreated control, SNU-449 cells, single dose
[4] = Table 44 experiment, SNU-449 cells, 10,000 cells per well, free uptake, 2,000 nM, approximately 48 hours, RTS36584, Yap1 mRNA normalized to RIBOGREEN, relative to untreated control cells
[5] = Table 50, Yap1 mRNA remaining as percent of untreated control (UT), SNU-449 cells, single dose
[6] = Table 43 experiment, SNU-449 cells, 10,000 cells per well, free uptake, 2,000 nM, approximately 48 hours, RTS36584, Yap1 mRNA normalized to RIBOGREEN, relative to untreated control cells
[7] = Table 40 (separate experiment), SNU-449 cells, 10,000 cells per well, free uptake, 2,000 nM oligonucleotide, approx. 48 hours, RTS36584, normalized to RIBOGREEN, Yap1 mRNA relative to untreated control
[8] = Table 49, Yap1 mRNA level relative to untreated control, modified oligonucleotides targeting SEQ ID NO.: 1 and 2
[9] = Table 52, Yap1 mRNA, modified oligonucleotides targeting SEQ ID NO: 1 and 2
[10] = Table 41, SNU-449 cells, 10,000 cells per well, free uptake, 2,000 nM modified oligonucleotide, approximately 48 hours, RTS36584, normalized to RIBOGREEN, Yap1 mRNA relative to untreated control cells
[11] = Table 51, Yap1 mRNA remaining as percent of untreated control (UT), SNU-449 cells, single dose

1198889 (kT*kT*dA*dG*dA*d[5mC]*dT*dA*dA*dG*dT*kA*eA*kG*eG*kT; antisense) [Compound 1198889]
YAP1 (% UT) [1]: 27 % UT

1198437 (kT*dT*dT*dA*dT*dG*dT*dA*dA*dT*dA*kT*eT*kG*e[5mC]*kA; antisense) [Compound 1198437]
YAP1 (% UTC) [2]: 63 % UTC

1197226 (antisense kA*kG*kA*d[5mC]*dT*dA*dA*dG*dT*dA*dA*dG*dG*kT*kT*kT) [Compound 1197226]
YAP1 (% UT) (Yap1 mRNA, percent of untreated control, modified oligonucleotides targeting SEQ ID NO: 1 and 2, Table 47): 67 % UT

1198955 (kA*kT*dG*dT*dA*dA*dT*dA*dT*dT*dG*k[5mC]*dA*kA*dT*k[5mC]; antisense) [Compound 1198955]
YAP1 (% UTC) [3]: 92 % UTC

1198828 (kT*kT*dT*dT*dA*d[5mC]*dA*dT*dT*dA*dG*kG*eA*kA*e[5mC]*kA; antisense) [Compound 1198828]
YAP1 (% UT) [1]: 59 % UT

1198494 (antisense kG*kT*dG*d[5mC]*dT*dT*dT*dG*dG*dA*dA*eG*kA*eT*k[5mC]*eT) [Compound 1198494]
YAP1 (% UTC) [4]: 15 % UTC

1198521 (kA*kT*dG*dT*dA*dA*dT*dA*dT*dT*dG*e[5mC]*kA*eA*kT*e[5mC]; antisense) [Compound 1198521]
YAP1 (% UTC) [4]: 44 % UTC

1198372 (kA*dA*dT*dT*dG*dT*d[5mC]*dT*d[5mC]*dA*dT*kG*e[5mC]*k[5mC]*eT*kT; antisense) [Compound 1198372]
YAP1 (% UTC) [2]: 21 % UTC

1197294 (kG*k[5mC]*kA*d[5mC]*mU*dT*dT*dT*dA*d[5mC]*dA*dT*dT*kA*kG*kG; antisense) [Compound 1197294]
YAP1 (% UT) [5]: 25 % UT

1198462 (antisense kT*kG*dG*dA*dA*dA*dT*dT*dG*dT*d[5mC]*eT*k[5mC]*eA*kT*eG) [Compound 1198462]
YAP1 (% UTC) [6]: 27 % UTC

1198763 (kG*eA*kT*dT*dT*dA*dG*dG*dA*dT*dG*d[5mC]*eA*eT*kG*kG; antisense) [Compound 1198763]
YAP1 (% UTC) [7]: 26 % UTC

1198574 (antisense kG*kG*kA*dA*dG*dA*dT*d[5mC]*dT*dG*dA*dA*kA*k[5mC]*kT*e[5mC]) [Compound 1198574]
YAP1 (% UT) [8]: 37 % UT

1200818 (kA*kA*kG*d[5mC]*dA*mC*dT*dT*dT*dT*dA*d[5mC]*dA*kT*kT*kA; antisense) [Compound 1200818]
YAP1 (% UT) [9]: 31 % UT

1198786 (antisense kT*eG*kT*dA*dT*dG*dT*d[5mC]*dA*dG*dA*dA*eG*eA*kG*kT) [Compound 1198786]
YAP1 (% UTC) [10]: 16 % UTC

1198641 (kA*kT*dT*dA*dG*dA*dG*dT*dA*dT*dG*dT*kG*eG*k[5mC]*eA; antisense) [Compound 1198641]
YAP1 (% UTC) [10]: 15 % UTC

1198883 (kA*kA*dG*dT*dA*dA*dG*dG*dT*dT*dT*k[5mC]*e[5mC]*k[5mC]*eA*kG; antisense) [Compound 1198883]
YAP1 (% UT) [1]: 47 % UT

1198263 (kA*kT*dG*dT*dA*dA*dT*dA*dT*dT*dG*e[5mC]*eA*eA*kT*k[5mC]; antisense) [Compound 1198263]
YAP1 (% UTC) [6]: 114 % UTC

1198881 (kT*kA*dA*dG*dG*dT*dT*dT*d[5mC]*d[5mC]*d[5mC]*kA*eG*kA*eT*kT; antisense) [Compound 1198881]
YAP1 (% UT) [1]: 36 % UT

1198724 (kA*eG*kA*dG*dT*dA*dT*dG*dT*dG*dG*d[5mC]*eA*eA*kT*kA; antisense) [Compound 1198724]
YAP1 (% UTC) [7]: 16 % UTC

1198360 (kA*kA*k[5mC]*dT*dT*dT*dA*dA*dA*dG*dT*dG*kT*eA*kT*eG; antisense) [Compound 1198360]
YAP1 (% UT) [8]: 74 % UT

1198620 (kA*kG*kT*dA*dA*dG*dG*dT*dT*dT*d[5mC]*d[5mC]*k[5mC]*kA*kG*eA) [Compound 1198620]
YAP1 (% UT) [5]: 26 % UT

1200800 (T_{ks}A_{ks}T_{ks}A_{ds}T_{ds}U_{ys}A_{ds}G_{ds}A_{ds}G_{ds}T_{ds}A_{ds}T_{ds}G_{ks}T_{ks}G_{k}; antisense; as printed in the source, key not given here) [Compound 1200800]
YAP1 (% UT) [11]: 61 % UT

1200867 (kA*kA*kG*dT*dA*mA*dG*dG*dT*dT*dT*d[5mC]*d[5mC]*k[5mC]*kA*kG; antisense) [Compound 1200867]
YAP1 (% UT) [9]: 38 % UT

1198963 (kT*kT*dA*dA*dA*dG*dT*dG*dT*dA*dT*kG*dT*k[5mC]*dA*kG; antisense) [Compound 1198963]
YAP1 (% UTC) [3]: 27 % UTC

1198411 (kA*dG*dG*dA*dT*dG*d[5mC]*dA*dT*dG*dG*kT*eT*kT*eT*kT; antisense) [Compound 1198411]
YAP1 (% UTC) [2]: 33 % UTC

1198508 (k[5mC]*kT*dT*dA*dT*dA*dT*dG*dG*dT*dT*eT*kT*eG*kT*eG; antisense) [Compound 1198508]
YAP1 (% UTC) [4]: 22 % UTC

1198320 (kG*k[5mC]*kT*dT*dT*dG*dG*dA*dA*dG*dA*dT*k[5mC]*eT*kG*eA; antisense) [Compound 1198320]
YAP1 (% UT) (Table 48, Yap1 mRNA level relative to untreated control, modified oligonucleotides targeting SEQ ID NO.: 1 and 2): 26 % UT

1198690 (antisense kT*kA*dA*dT*dA*dT*dT*dG*d[5mC]*dA*dA*dT*k[5mC]*eT*kG*eT) [Compound 1198690]
YAP1 (% UTC) [10]: 64 % UTC

1200871 (kG*kA*k[5mC]*dT*dA*mA*dG*dT*dA*dA*dG*dG*dT*kT*kT*k[5mC]; antisense) [Compound 1200871]
YAP1 (% UT) [9]: 65 % UT

1198459 (antisense kA*kA*dA*dT*dT*dG*dT*d[5mC]*dT*d[5mC]*dA*eT*kG*e[5mC]*k[5mC]*eT) [Compound 1198459]
YAP1 (% UTC) [6]: 28 % UTC

1197261 (kT*k[5mC]*kT*dT*mA*dT*dA*dT*dG*dG*dT*dT*dT*kT*kG*kT) [Compound 1197261]
YAP1 (% UT) [11]: 91 % UT

1198956 (kT*kA*dT*dG*dT*dA*dA*dT*dA*dT*dT*kG*d[5mC]*kA*dA*kT; antisense) [Compound 1198956]
YAP1 (% UTC) [3]: 76 % UTC

1198530 (kT*kT*dT*dA*dA*dA*dG*dT*dG*dT*dA*eT*kG*eT*k[5mC]*eA; antisense) [Compound 1198530]
YAP1 (% UTC) [4]: 29 % UTC

1198532 (kA*kA*d[5mC]*dT*dT*dT*dA*dA*dA*dG*dT*eG*kT*eA*kT*eG; antisense) [Compound 1198532]
YAP1 (% UTC) [4]: 36 % UTC

1198212 (kT*kA*dT*dT*dA*dG*dA*dG*dT*dA*dT*eG*eT*eG*kG*k[5mC]; antisense) [Compound 1198212]
YAP1 (% UTC) (Table 42 (separate experiment), SNU-449 cells, 10,000 cells per well, free uptake, 2,000 nM modified oligonucleotide, approximately 48 hours, RTS36584, normalized to RIBOGREEN, Yap1 mRNA relative to untreated control cells): 17 % UTC

1198597 (antisense kA*k[5mC]*kT*d[5mC]*dT*dT*dA*dT*dA*dT*dG*dG*kT*kT*kT*eT) [Compound 1198597]
YAP1 (% UT) [5]: 27 % UT

1198926 (kG*k[5mC]*dT*dT*dT*dG*dG*dA*dA*dG*dA*kT*d[5mC]*kT*dG*kA; antisense) [Compound 1198926]
YAP1 (% UTC) [3]: 45 % UTC

1095595 (antisense k[5mC]*kA*d[5mC]*dT*dG*dA*dG*dG*dT*dA*dT*eA*eA*e[5mC]*kT*kG) [Compound 1095595]
YAP1 (% UTC) [6]: 63 % UTC

1198555 (antisense kA*kT*kT*dA*dG*dA*dG*dT*dA*dT*dG*dT*kG*kG*k[5mC]*eA) [Compound 1198555]
YAP1 (% UT) [8]: 11 % UT

1200836 (kT*k[5mC]*kA*dG*dA*mU*dT*dT*dA*dG*dG*dA*dT*kG*k[5mC]*kA; antisense) [Compound 1200836]
YAP1 (% UT) [9]: 72 % UT

1198961 (kA*kA*dA*dG*dT*dG*dT*dA*dT*dG*dT*k[5mC]*dA*kG*dA*kA; antisense) [Compound 1198961]
YAP1 (% UTC) [3]: 12 % UTC

1198631 (kA*kA*dA*dT*dT*dG*dT*d[5mC]*dT*d[5mC]*dA*dT*kG*e[5mC]*k[5mC]*eT; antisense) [Compound 1198631]
YAP1 (% UTC) [10]: 53 % UTC

1198731 (kT*e[5mC]*kT*dA*dT*dA*dT*dT*dA*dG*dA*dG*eT*eA*kT*kG; antisense) [Compound 1198731]
YAP1 (% UTC) [7]: 59 % UTC

1095427 (antisense k[5mC]*kA*d[5mC]*dT*dG*dA*dG*dG*dT*dA*dT*kA*eA*k[5mC]*eT*kG) [Compound 1095427]
YAP1 (% UT) [1]: 45 % UT

1198651 (kT*kT*dA*d[5mC]*dA*dT*dT*dA*dG*dG*dA*dA*k[5mC]*eA*kA*eG; antisense) [Compound 1198651]
YAP1 (% UTC) [10]: 94 % UTC

1198548 (antisense kT*kG*kG*dA*dA*dA*dT*dT*dG*dT*d[5mC]*dT*k[5mC]*kA*kT*eG) [Compound 1198548]
YAP1 (% UT) [8]: 26 % UT

1198759 (kA*eG*kG*dA*dT*dG*d[5mC]*dA*dT*dG*dG*dT*eT*eT*kT*kT; antisense) [Compound 1198759]
YAP1 (% UTC) [7]: 27 % UTC

1198927 (kT*kG*d[5mC]*dT*dT*dT*dG*dG*dA*dA*dG*kA*dT*k[5mC]*dT*kG; antisense) [Compound 1198927]
YAP1 (% UTC) [3]: 50 % UTC
